Values of other authors as cited in patent US20050038473A1, “Device and method for the treatment of pilosebaceous disorders” (priority 2003, published 2005).
Read-outs that look alike come from different tables or passages of the source.

What was measured:
[1] = system: in-vitro hair follicle cultures; settings: 5-alpha-reductase blocker, versus finasteride
androgen receptors = target: T1, androgen receptors (Homo sapiens, UniProt P10275); settings: compared with testosterone
T1 sequence (P10275 1-920): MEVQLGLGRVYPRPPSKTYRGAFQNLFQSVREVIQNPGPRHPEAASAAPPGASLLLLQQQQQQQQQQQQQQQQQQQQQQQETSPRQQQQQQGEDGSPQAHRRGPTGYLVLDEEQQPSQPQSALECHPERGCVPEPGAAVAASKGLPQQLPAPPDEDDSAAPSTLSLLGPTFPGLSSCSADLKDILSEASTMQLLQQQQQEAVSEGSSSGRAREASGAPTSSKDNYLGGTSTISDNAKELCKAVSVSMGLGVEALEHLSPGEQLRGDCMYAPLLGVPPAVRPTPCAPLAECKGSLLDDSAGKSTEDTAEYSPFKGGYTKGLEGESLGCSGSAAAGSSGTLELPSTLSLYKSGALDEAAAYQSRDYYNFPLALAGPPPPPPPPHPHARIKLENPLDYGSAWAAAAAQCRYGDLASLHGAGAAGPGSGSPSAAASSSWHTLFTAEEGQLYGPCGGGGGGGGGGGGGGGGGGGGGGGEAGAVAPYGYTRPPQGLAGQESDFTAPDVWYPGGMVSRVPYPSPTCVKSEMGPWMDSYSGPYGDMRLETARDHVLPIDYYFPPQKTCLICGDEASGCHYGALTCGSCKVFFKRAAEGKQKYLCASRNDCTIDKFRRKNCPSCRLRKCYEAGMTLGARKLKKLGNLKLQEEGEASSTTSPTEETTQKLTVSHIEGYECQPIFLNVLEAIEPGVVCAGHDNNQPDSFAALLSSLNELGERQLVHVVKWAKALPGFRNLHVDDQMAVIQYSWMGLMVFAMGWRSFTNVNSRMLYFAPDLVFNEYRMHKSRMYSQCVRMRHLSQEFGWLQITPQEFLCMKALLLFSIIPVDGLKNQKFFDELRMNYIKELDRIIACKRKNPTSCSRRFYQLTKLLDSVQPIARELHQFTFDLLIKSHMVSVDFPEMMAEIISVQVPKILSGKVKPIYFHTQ

idiopathic hirsutism = settings: women with idiopathic hirsutism taking flutamide

## C=C1/C(=C\C=C2/CCC[C@]3(C)[C@@H]([C@H](C)CCCC(C)(C)O)CC[C@@H]23)C[C@@H](O)C[C@@H]1O [1,25-dihydroxyvitamin D3]
Hair follicles; high concentration (100 nM) and after longer contact
  effect on hair and hair follicle growth: inhibits
Hair follicles; low concentration (1-10 nM), direct contact with hair follicles
  effect on hair and hair follicle growth: stimulates

## CCN(CC)C(=O)[C@H]1CC[C@H]2[C@@H]3CC[C@H]4N(C)C(=O)CC[C@]4(C)[C@H]3CC[C@]12C [17-beta-N,N-diethylcarbamyl-4-methyl-4-aza-5-androstan-3-one]
[1]
  effect on in-vitro hair follicle cultures compared with finasteride: greater effect

## CN1C(=S)N(c2ccc(C#N)c(C(F)(F)F)c2)C(=O)C1(C)C [RU 56187]
Androgen receptors
  affinity for androgen receptors relative to the affinity of testosterone: three times higher

## CC1(C)C(=O)N(c2ccc(C#N)c(C(F)(F)F)c2)C(=S)N1CCCCO [RU 59063]
Androgen receptors
  affinity for androgen receptors relative to the affinity of testosterone: three times higher

## CC(C)C(=O)Nc1ccc([N+](=O)[O-])c(C(F)(F)F)c1 [flutamide]
Idiopathic hirsutism
  disturbance of plasma levels of gonadotropins, testosterone, androstenedione or dehydroepiandrostenedione: without disturbance
